Results as given in US20240383784A1, “ANTIMICROBIAL SYSTEM AND METHOD” (KEMIRA OYJ, priority 2021, published 2024).

Legend:
[1] = system: Meiothermus silvanus biofilms; test: Biofilm test on 96-microwell peg lids in synthetic paper machine water, Crystal Violet quantification; format: cell-based; conditions: SPW; for Impact (biofilm reduction percentage): 45° C., 150 rpm
Excerpt: (§1) Pure cultures of Meiothermus silvanus, a microbe species commonly found in paper machine biofilms (Ekman J, Journal of Industrial Microbiology & Biotechnology 34:203-211) and Pseudoxanthomonas taiwanensis, another species commonly found in paper machine environments (Desjardins, E & Beaulieu, C, Journal of Industrial Microbiology & Biotechnology 30:141-145) were used to study the efficacy of various chemicals to prevent biofilm formation.
(§2) Biofilm tests were done in fibre-containing synthetic paper machine water, SPW (prepared according to Peltola, et al., J. Ind. Microbiol. Biotechnol. 38: 1719-1727) using 96-microwell plate wells with peg lids (Thermo Fischer Scientific Inc., USA). Plates were incubated at 45° C. with a rotary shaking (150 rpm) providing high flow in each well.
(§3) Wells of 96-microwell plates with peg-lids were filled with SPW and inoculated with the pure bacterial cultures. Biofilm was grown at 45° C. with a rotary shaking (150 rpm) for 24 hours without addition of any chemical compound to be tested.
(§4) After 24 hours from starting the test, the wells were emptied and a fresh solution of SPW, inoculated with the pure bacterial cultures and with different amounts of chemical compounds to be tested were added and the original peg-lid was placed back in place. After an additional 24 hours the wells were emptied and the biofilm amount on the pegs was quantified.
(§5) The amount of biofilm formed on the peg surfaces was quantified with a staining solution by adding 200 μl of 1% Crystal Violet (Merck Millipore KGaA, Germany) in methanol to each well in a clean 96-well plate and placing the biofilm-containing peg-lid on it. After 3 minutes the wells were emptied and the wells and pegs were rinsed 3 times with tap water. Finally the peg-lid was placed in a clean 96-well plate, the attached Crystal Violet was dissolved into ethanol and the absorbance at 595 nm was measured.
(§6) All parts per million (ppm) amounts given in Examples 1-2 are as active ingredients. The Impact values are calculated as biofilm reduction percentages based on a comparison with no added chemicals. A positive value indicates a reduction in amount of biofilm whereas a negative value indicates an increase in the amount of biofilm.

[2] = system: Pseudoxanthomonas taiwanensis biofilms; test: as above; format: cell-based; conditions: SPW; for Impact (biofilm reduction percentage): 45° C., 150 rpm
Excerpt: as §1, §2, §3, §4, §5, §6

[3] = Sodium hypochlorite 4 ppm alone
[4] = Sodium hypochlorite 8 ppm alone
[5] = on its own, up to a dosage of 8 or 16 ppm

`Cc1ccc(S(=O)(=O)C=CC#N)cc1` [Compound A, 3-[(4-methylphenyl)sulphonyl]-2-propenenitrile] was tested. Which “Impact (biofilm reduction percentage)” value ([1]; Compound A 0.15 ppm alone, Table 1) did it give?
Its value is 7%.

And the “Impact (biofilm reduction percentage)” value ([1]; Compound A 0.3 ppm alone, Table 1)?
Its value is −7%.

What about the “Impact (biofilm reduction percentage)” value ([1]; Compound A 0.3 ppm alone, Table 3) of the same compound?
Its value is −15%.

And the “Impact (biofilm reduction percentage)” value ([1]; Compound A 0.45 ppm alone, Table 3)?
Its value is 11%.

What about the “biofilm reduction efficacy (in words)” value ([1]; at low dosages) of the same compound?
The value was “ineffective”.

What about the “Impact (biofilm reduction percentage)” value ([2]; Compound A 0.15 ppm alone, Table 2) of the same compound?
Its value is 5%.

What about the “Impact (biofilm reduction percentage)” value ([2]; Compound A 0.15 ppm alone, Table 4) of the same compound?
The value was 19%.

What about the “Impact (biofilm reduction percentage)” value ([2]; Compound A 0.3 ppm alone, Table 2) of the same compound?
The value was 7%.

What about the “biofilm reduction efficacy (in words)” value ([2]; at low dosages) of the same compound?
The value was “ineffective”.

Which results are given for `NCl` [MCA, Monochloramine]?
Impact (biofilm reduction percentage) ([1]; MCA 0.5 ppm alone): −22%; Impact (biofilm reduction percentage) ([1]; MCA 1 ppm alone): 4%; Impact (biofilm reduction percentage) ([1]; MCA 1.5 ppm alone): −2%; biofilm reduction efficacy (in words) ([1]; at low dosages): ineffective; Impact (biofilm reduction percentage) ([2]; MCA 0.5 ppm alone): −11%; Impact (biofilm reduction percentage) ([2]; MCA 1 ppm alone): −3%; Impact (biofilm reduction percentage) ([2]; MCA 1.5 ppm alone): 7%; biofilm reduction efficacy (in words) ([2]; at low dosages): ineffective

With `OCl` [Sodium hypochlorite, reference compound] as the compound, how does the “Impact (biofilm reduction percentage)” value ([1]; Sodium hypochlorite 2 ppm alone) read?
The value was −71%.

What about the “Impact (biofilm reduction percentage)” value [1, 3] of the same compound?
The value was 1%.

And the “Impact (biofilm reduction percentage)” value [1, 4]?
The value was 5%.

What about the “biofilm reduction efficacy (in words)” value [1, 5] of the same compound?
Its value is “ineffective”.

What about the “Impact (biofilm reduction percentage)” value [2, 3] of the same compound?
The value was −3%.

What about the “Impact (biofilm reduction percentage)” value [2, 4] of the same compound?
Its value is −5%.

And the “Impact (biofilm reduction percentage)” value ([2]; Sodium hypochlorite 16 ppm alone)?
Its value is 0%.

What about the “biofilm reduction efficacy (in words)” value [2, 5] of the same compound?
The value was “ineffective”.
